Reference: publication PMC4506530, “Small-Molecule Inhibitors That Target Protein–Protein Interactions in the RAD51 Family of Recombinases” (Chemmedchem, 2014)
Where two headings read alike, the source gives them in different places.

Molecular target: HumRADA2 (Pyrococcus furiosus, UniProt O74036, D220A/DEL288-314/E219S/I169M/K221M/V202Y/Y201A)
Assay: Isothermal titration calorimetry (ITC), direct binding to HumRADA2
Details: for LLE: LLE=pKD−clog P, clog P calculated with Instant JChem (ChemAxon); for -TDS / DG / DH: ITC thermodynamic binding profile, Table S1; for KD: ITC, substituted tryptamine sulfonamide series (Table 2), error from fitting a single-site binding model
Text: We previously published fragment-screening results using a humanised RAD51 surrogate from Pyrococcus furiosus, which we refer to as HumRADA2 (previously referred to as MAYSAM RadA).[23] In this surrogate protein, the N-terminal domain with the oligomerisation sequence was removed to monomerise the protein and expose the FxxA binding site for screening, and six surface residues were mutated around the Phe pocket in order to humanise the protein in this region.
Supplemental Experimental Procedures
C-terminal ATPase domain of P. furiosus RadA (residues 108–349, with deletion of the “L2” loop residues 288–314) was expressed in E.coli and purified as described before using ion-exchange ad size exclusion chromatographies.[1] Purified protein was concentrated to 0.5 mM, flash frozen in liquid nitrogen and stored at -80C. Protein concentration was determined by measuring absorbance at 280 nm in 6M GndHCl and using calculated absorption coefficient […]
Isothermal Titration Calorimetry
ITC experiments were performed at 25°C on a MicroCal ITC-200 (GE Healthcare).
HumRadA2 (humanized RadA) (600 µM in 20 mM MES pH 6.0 with 100 mM NaCl and 0.5 mM EDTA was diluted with Tris buffer (200 mM, pH 7.5 with 100 mM NaCl), and DMSO was added to match to the ligand solution. In titrations with ATP, 5 mM MgCl2 was included in the ligand buffer and the protein buffer. Compounds in DMSO were diluted into the same Tris buffer to give a final concentration of 0.6–10 mM ligand in 10% DMSO and Tris buffer. Care was taken to ensure that the DMSO concentrations in the protein and ligand solutions were well matched so as to avoid artefacts arising from heats of dilution of DMSO. In a typical experiment, protein (60 µM) was loaded in the sample cell, and 16 injections (2.4 µL) of 4.8 s duration were made at 80 s intervals from a syringe loaded with ligand (0.6–10 mM) and rotating at 1000 rpm. In all titrations, an initial injection of ligand (0.4 µL) was made and discarded during data analysis. Control titrations of ligand to buffer were performed and […]
The thermodynamic parameters were obtained by fitting the data to a single-site-binding model by using Origin software and fixing the stoichiometry as 1.0 for […]

[1] = tryptophan ester series (Table 1)
[2] = substituted tryptamine series (Table 2)

SMILES: Cl.N[C@@H](Cc1c[nH]c2ccccc12)C(=O)Oc1ccccc1 [5 a]
- Kd: 190 ± 5 µM
- LLE [1]: 0.7
- LE (ligand efficiency) [1]: 0.24 kcal mol−1 per heavy atom

SMILES: Cl.N[C@@H](Cc1c[nH]c2ccccc12)C(=O)OCc1ccccc1 [5 b]
- Kd: 200 ± 8 µM
- LLE [1]: 0.7
- LE (ligand efficiency) [1]: 0.23 kcal mol−1 per heavy atom

SMILES: Cl.N[C@@H](Cc1c[nH]c2ccccc12)C(=O)OCCCc1ccccc1 [5 d]
- Kd: 160 ± 7 µM
- LLE [1]: 0.02
- LE (ligand efficiency) [1]: 0.22 kcal mol−1 per heavy atom

SMILES: N[C@@H](Cc1c[nH]c2ccccc12)C(=O)NCCc1ccccc1 [5 e]
- Kd: > 200 µM

SMILES: Cl.N[C@@H](Cc1c[nH]c2ccccc12)C(=O)OCCc1ccccc1F [5 f]
- Kd: 25 ± 5 µM
- LLE [1]: 1.1
- LE (ligand efficiency) [1]: 0.26 kcal mol−1 per heavy atom

SMILES: Cl.N[C@@H](Cc1c[nH]c2ccccc12)C(=O)OCCc1ccccc1O [5 g]
- Kd: 27 ± 12 µM
- LLE [1]: 1.5
- LE (ligand efficiency) [1]: 0.26 kcal mol−1 per heavy atom

SMILES: Cc1ccccc1CCOC(=O)[C@@H](N)Cc1c[nH]c2ccccc12.Cl [5 h]
- Kd: 30 ± 9 µM
- LLE [1]: 0.7
- LE (ligand efficiency) [1]: 0.26 kcal mol−1 per heavy atom

SMILES: Cc1cccc(CCOC(=O)[C@@H](N)Cc2c[nH]c3ccccc23)c1.Cl [5 i]
- Kd: 30 ± 7 µM
- LLE [1]: 0.7
- LE (ligand efficiency) [1]: 0.26 kcal mol−1 per heavy atom

SMILES: Cc1ccc(CCOC(=O)C(N)Cc2c[nH]c3ccccc23)cc1 (centres unmarked) [5 j]
- Kd: 22 ± 4 µM
- LLE [1]: 0.8
- LE (ligand efficiency) [1]: 0.26 kcal mol−1 per heavy atom

SMILES: COc1ccc(CCOC(=O)[C@@H](N)Cc2c[nH]c3ccccc23)cc1 [5 k]
- Kd: > 200 µM

SMILES: N[C@@H](Cc1c[nH]c2ccccc12)C(=O)OCCc1ccc(Br)cc1 [5 l]
- Kd: > 200 µM

SMILES: Cl.N[C@@H](Cc1c[nH]c2ccccc12)C(=O)OCCC1CCCCC1 [5 m]
- Kd: 28 ± 9 µM
- LLE [1]: 0.8
- LE (ligand efficiency) [1]: 0.27 kcal mol−1 per heavy atom

SMILES: Cl.N[C@@H](Cc1c[nH]c2ccccc12)C(=O)OCCc1c[nH]c2ccccc12 [5 n]
- Kd: 35 ± 9 µM
- LLE [1]: 1.0
- LE (ligand efficiency) [1]: 0.23 kcal mol−1 per heavy atom

SMILES: O=C(NC(Cc1c[nH]c2ccccc12)C(=O)OCCc1ccccc1)c1ccccc1 (centres unmarked) [6 a]
- Kd: 3 ± 1 µM
- -TDS: -4.2 kcal/mol
- DG: -7.6 kcal/mol
- DH: -3.4 kcal/mol
- LLE [1]: 0.5
- LE (ligand efficiency) [1]: 0.24 kcal mol−1 per heavy atom

SMILES: CC(=O)N[C@@H](Cc1c[nH]c2ccccc12)C(=O)OCCc1ccccc1F [6 b]
- Kd: 18 ± 1 µM
- LLE [1]: 1.5
- LE (ligand efficiency) [1]: 0.25 kcal mol−1 per heavy atom

SMILES: O=C(N[C@@H](Cc1c[nH]c2ccccc12)C(=O)OCCc1ccccc1)c1cccc([N+](=O)[O-])c1 [6 c]
- Kd: > 200 µM

SMILES: O=C(NC(Cc1c[nH]c2ccccc12)C(=O)OCCc1ccccc1)C1CCCCC1 (centres unmarked) [6 d]
- Kd: > 200 µM

SMILES: O=C(CCc1ccccc1)N[C@@H](Cc1c[nH]c2ccccc12)C(=O)OCCc1ccccc1 [6 e]
- Kd: > 200 µM

SMILES: O=S(=O)(NCCc1c[nH]c2ccccc12)c1ccccc1 [7 a]
- Kd: 28 ± 6 µM
- LLE [2]: 1.6
- LE (ligand efficiency) [2]: 0.30 kcal mol−1 per heavy atom

SMILES: O=S(=O)(Cc1ccccc1)NCCc1c[nH]c2ccccc12 [7 b]
- Kd: > 200 µM
- KD: No activity was detectable

SMILES: O=S(=O)(NCCc1c[nH]c2ccccc12)c1ccc(Br)cc1 [7 c]
- Kd: 92 ± 22 µM
- LLE [2]: 0.4
- LE (ligand efficiency) [2]: 0.25 kcal mol−1 per heavy atom

SMILES: O=S(=O)(NCCc1c[nH]c2ccccc12)c1ccccc1Br [7 d]
- Kd: 3.1 ± 0.1 µM
- LLE [2]: 1.8
- LE (ligand efficiency) [2]: 0.34 kcal mol−1 per heavy atom

SMILES: O=[N+]([O-])c1cccc(S(=O)(=O)NCCc2c[nH]c3ccccc23)c1 [7 e]
- Kd: 18 ± 4 µM
- LLE [2]: 1.9
- LE (ligand efficiency) [2]: 0.27 kcal mol−1 per heavy atom

SMILES: Nc1cccc(S(=O)(=O)NCCc2c[nH]c3ccccc23)c1 [7 f]
- Kd: 31 ± 6 µM
- LLE [2]: 2.4
- LE (ligand efficiency) [2]: 0.28 kcal mol−1 per heavy atom

SMILES: COc1ccc(S(=O)(=O)NCCc2c[nH]c3ccccc23)cc1 [7 g]
- Kd: 120 ± 10 µM
- LLE [2]: 1.2
- LE (ligand efficiency) [2]: 0.23 kcal mol−1 per heavy atom

SMILES: CS(=O)(=O)NCCc1c[nH]c2ccccc12 [7 i]
- Kd: > 200 µM
- KD: No activity was detectable

SMILES: O=S(=O)(NCCc1c[nH]c2ccccc12)c1cccs1 [7 j]
- Kd: 16 ± 6 µM
- LLE [2]: 1.9
- LE (ligand efficiency) [2]: 0.33 kcal mol−1 per heavy atom

SMILES: O=S(=O)(NCCc1c[nH]c2ccccc12)c1ccc(Br)s1 [7 k]
- Kd: 10 ± 1 µM
- LLE [2]: 1.2
- LE (ligand efficiency) [2]: 0.32 kcal mol−1 per heavy atom

SMILES: O=S(=O)(NCCc1c[nH]c2ccccc12)c1ccc(Cl)s1 [7 l]
- Kd: 13 ± 1 µM
- LLE [2]: 1.3
- LE (ligand efficiency) [2]: 0.32 kcal mol−1 per heavy atom

SMILES: O=S(=O)(NCCc1c[nH]c2ccccc12)c1c(Cl)sc(Cl)c1Br [7 n]
- Kd: 2.3 ± 0.4 µM
- LLE [2]: 0.6
- LE (ligand efficiency) [2]: 0.33 kcal mol−1 per heavy atom

SMILES: O=S(=O)(NCCc1c[nH]c2ccccc12)c1cc(Br)c(Br)s1 [7 o]
- Kd: 67 ± 29 µM
- LLE [2]: −0.4
- LE (ligand efficiency) [2]: 0.27 kcal mol−1 per heavy atom

SMILES: O=S(=O)(NCCc1c[nH]c2ccccc12)c1cc2ccccc2s1 [7 p]
- Kd: 1.6 ± 0.6 µM
- LLE [2]: 1.8
- LE (ligand efficiency) [2]: 0.33 kcal mol−1 per heavy atom

SMILES: Cc1noc(C)c1S(=O)(=O)NCCc1c[nH]c2ccccc12 [7 q]
- Kd: 110 ± 12 µM
- LLE [2]: 2.4
- LE (ligand efficiency) [2]: 0.25 kcal mol−1 per heavy atom

SMILES: O=S(=O)(NCCc1c[nH]c2ccccc12)c1ccco1 [7 r]
- Kd: 18 ± 2 µM
- LLE [2]: 2.6
- LE (ligand efficiency) [2]: 0.32 kcal mol−1 per heavy atom

SMILES: Cn1cnc(S(=O)(=O)NCCc2c[nH]c3ccccc23)c1 [7 s]
- Kd: 420 ± 74 µM
- LLE [2]: 1.8
- LE (ligand efficiency) [2]: 0.22 kcal mol−1 per heavy atom

SMILES: Nc1ncnc2c1ncn2[C@@H]1O[C@H](COP(=O)(O)OP(=O)(O)OP(=O)(O)O)[C@@H](O)[C@H]1O [ATP, reference compound]
- Kd (ITC against apo protein, in the absence of 5 c, read-out: KD): 2.5 µM

SMILES: CNC(=O)C(N)Cc1c[nH]c2ccccc12 (centres unmarked) [compound 2]
- Kd: 1500 ± 24 µM
- -TDS: 1.3 kcal/mol
- DG: -3.8 kcal/mol
- DH: -5.1 kcal/mol
- LLE [1]: 2.2
- LE (ligand efficiency) [1]: 0.24 kcal mol−1 per heavy atom

SMILES: COC(=O)C(Cc1c[nH]c2ccccc12)NC(C)=O (centres unmarked) [compound 3]
- Kd: 810 ± 19 µM
- -TDS: 0.9 kcal/mol
- DG: -4.2 kcal/mol
- DH: -5.1 kcal/mol
- LLE [1]: 2.0
- LE (ligand efficiency) [1]: 0.22 kcal mol−1 per heavy atom

SMILES: CNC(=O)C(Cc1c[nH]c2ccccc12)NC(C)=O (centres unmarked) [compound 4]
- Kd: 890 ± 15 µM
- -TDS: 1.6 kcal/mol
- DG: -4.2 kcal/mol
- DH: -5.8 kcal/mol
- LLE [1]: 2.6
- LE (ligand efficiency) [1]: 0.22 kcal mol−1 per heavy atom
